Source: PubChem BioAssay (NCI)
Values joined by “and” are separate entries in the source; they are usually repeats but may differ in a detail not shown here. Identical values can stand only once.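 Each compound was tested at five concentrations against cells in 96-well plates for 48 hours. Abbreviation: GI50, concentration required for 50% inhibition of growth. TGI: total growth inhibition.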

Legend:
Experiment in all cases: NCI-60 cell line screen, 48 h
[1] = test system: SR leukemia
[2] = test system: UACC-62 melanoma
[3] = test system: MALME-3M melanoma
[4] = test system: HS 578T breast
[5] = test system: HOP-92 NSCLC
[6] = test system: EKVX NSCLC
[7] = test system: SF-268 CNS
[8] = test system: SF-539 CNS
[9] = test system: RXF 393 renal
[10] = test system: BT-549 breast

Nc1cc(Br)c(-c2nnc(CCC(=O)c3nc4ccccc4[nH]3)o2)c(Br)c1
GI50 [1]: 4.2 µM
TGI [1]: > 100 µM
GI50 [2]: 5.37 µM
TGI [2]: > 100 µM
GI50 [3]: 2.06 µM
TGI [3]: 17.2 µM
GI50 [4]: 3.75 µM
TGI [4]: 31.7 µM
GI50 [5]: 0.499 µM
TGI [5]: 19.9 µM
GI50 [6]: 23.1 µM
TGI [6]: > 100 µM
GI50 [7]: 5.14 µM
TGI [7]: 81.5 µM
GI50 [8]: 17.3 µM
TGI [8]: 60.8 µM
GI50 [9]: 13 µM
TGI [9]: 58.7 µM
GI50 [10]: 6.82 µM
TGI [10]: > 100 µM

COc1cc2c(Nc3cc(Cl)c(OC)c(Cl)c3)c(C#N)cnc2cc1OCCCN1CCN(C)CC1
GI50 [1]: 1.53 µM
TGI [1]: 4.41 µM
GI50 [2]: 2.73 µM
TGI [2]: 7.9 µM
GI50 [3]: 1.6 µM
TGI [3]: 3.7 µM
GI50 [4]: 2.82 µM
TGI [4]: 11.5 µM
GI50 [5]: 7.83 µM
TGI [5]: 19.4 µM
GI50 [6]: 1.17 µM
TGI [6]: 18.9 µM
GI50 [7]: 1.9 µM
TGI [7]: 6.92 µM
GI50 [8]: 1.01 µM
TGI [8]: 2.91 µM
GI50 [9]: 1.01 µM
TGI [9]: 2.5 µM
GI50 [10]: 3.83 µM
TGI [10]: 13.8 µM

COc1ccc(-c2nccn2-c2ccc(OC)cc2)cc1
GI50 [1]: 0.64 µM
TGI [1]: 30.8 µM
GI50 [2]: 13.9 µM
TGI [2]: 48.9 µM
GI50 [3]: 15.9 µM
TGI [3]: 50.3 µM
GI50 [4]: 20.9 µM
TGI [4]: 74.7 µM
GI50 [5]: 2.45 µM
TGI [5]: > 41.7 µM
GI50 [6]: 41.5 µM
TGI [6]: > 100 µM
GI50 [7]: 22.9 µM
TGI [7]: 74.4 µM
GI50 [8]: 28 µM
TGI [8]: 90.4 µM
GI50 [9]: 17.9 µM
TGI [9]: > 80.5 µM
GI50 [10]: 28.7 µM
TGI [10]: > 94.5 µM

CCCc1cc(=O)n2c(C(=O)Nc3ccc(Cl)cc3C)c(C(=O)Nc3ccc(F)cc3)sc2n1
GI50 [1]: 0.943 µM
TGI [1]: 3.75 µM
GI50 [2]: 2.02 µM
TGI [2]: 12.1 µM
GI50 [3]: 5.12 µM
TGI [3]: 20.7 µM
GI50 [4]: 2.27 µM
TGI [4]: 8.55 µM
GI50 [5]: 0.166 µM
TGI [5]: 0.989 µM
GI50 [6]: 21.3 µM
TGI [6]: > 150 µM
GI50 [7]: 6.62 µM
TGI [7]: 24.9 µM
GI50 [8]: 6.02 µM
TGI [8]: 22.7 µM
GI50 [9]: 1.17 µM
TGI [9]: 4.46 µM
GI50 [10]: 27.7 µM
TGI [10]: 61 µM

CCN(CC)CCCCCCNc1cccc2cc(Br)cnc12
GI50 [1]: 3.04 µM
TGI [1]: 12.6 µM
GI50 [2]: 2.07 µM
TGI [2]: 4.7 µM
GI50 [3]: 2.46 µM
TGI [3]: 5.13 µM
GI50 [4]: 6.03 µM
TGI [4]: 28.5 µM
GI50 [5]: 2.52 µM
TGI [5]: 9.44 µM
GI50 [6]: 10.2 µM
TGI [6]: 25.1 µM
GI50 [7]: 10.9 µM
TGI [7]: 27.5 µM
GI50 [8]: 6.47 µM
TGI [8]: 20.8 µM
GI50 [9]: 4.52 µM
TGI [9]: 15.1 µM
GI50 [10]: 10.1 µM
TGI [10]: 22.2 µM

CCCC(=O)C1=C(O)C(Cc2c(O)c(C)c(O)c(C(=O)CCC)c2O)=C(O)C(C)(C)C1=O
TGI [1]: 40.3 µM
TGI [2]: > 50 µM
TGI [4]: > 50 µM
TGI [5]: > 50 µM
TGI [6]: > 50 µM
TGI [7]: > 50 µM
TGI [9]: > 50 µM
TGI [10]: > 50 µM

CCC(C)(O)c1cnc(CC(C)C)c(=O)n1O (stereo not drawn)
TGI [1]: 62.6 µM
TGI [2]: > 100 µM
TGI [4]: > 100 µM
TGI [5]: > 100 µM
TGI [6]: > 100 µM
TGI [7]: > 100 µM
TGI [9]: > 100 µM
TGI [10]: > 100 µM

COc1ccc(C(=O)c2cc(OC)c(OC)c(OC)c2)cc1OC
TGI [1]: > 100 µM
TGI [2]: > 100 µM
TGI [3]: > 100 µM
TGI [4]: 8.83 µM
TGI [6]: > 100 µM
TGI [7]: > 100 µM
TGI [8]: 5.14 µM
TGI [9]: 6.3 µM
TGI [10]: > 100 µM

Cc1ccc(OCCOCCOCCOCCOc2ccc(C)n(O)c2=S)c(=S)n1O
GI50 [1]: 0.0616 µM
TGI [1]: > 100 µM
GI50 [2]: 0.115 µM
TGI [2]: 40.5 µM
GI50 [3]: 0.0644 µM
TGI [3]: > 52.7 µM
GI50 [4]: 3.58 µM
TGI [4]: > 100 µM
GI50 [5]: 4.78 µM
TGI [5]: > 90.8 µM
GI50 [6]: 0.0213 µM
TGI [6]: > 100 µM
GI50 [7]: 0.0482 µM
TGI [7]: > 100 µM
GI50 [8]: 0.317 µM
TGI [8]: > 100 µM
GI50 [9]: 1.55 µM
TGI [9]: 22.3 µM
GI50 [10]: 0.52 µM
TGI [10]: > 100 µM

COc1ccc(/C(C)=C(\c2ccc(OCCN3CCCCCC3)cc2)c2ccc(OC(=O)C3CCCCC3)cc2)cc1
GI50 [1]: 0.291 µM
TGI [1]: 1.07 µM
GI50 [2]: 0.892 µM
TGI [2]: 2.85 µM
GI50 [3]: 0.517 µM
TGI [3]: 2.14 µM
GI50 [4]: 0.959 µM
TGI [4]: 3.74 µM
GI50 [5]: 0.813 µM
TGI [5]: 2.76 µM
GI50 [6]: 1.39 µM
TGI [6]: 5.48 µM
GI50 [7]: 1.16 µM
TGI [7]: 4.33 µM
GI50 [8]: 0.833 µM
TGI [8]: 2.74 µM
GI50 [9]: 0.704 µM
TGI [9]: 2.6 µM
GI50 [10]: 1.53 µM
TGI [10]: 3.36 µM

COc1cc(/C=C\c2cc(OC)c(OC)c(OC)c2)cc(N/C=C\C(=O)c2c[nH]c3ccccc23)c1OC
GI50 [1]: 0.469 µM
TGI [1]: 3.38 µM
GI50 [2]: 1.39 µM
TGI [2]: 3.33 µM
GI50 [3]: 1.27 µM
TGI [3]: 3.18 µM
GI50 [4]: 2.21 µM
TGI [4]: 12.9 µM
GI50 [5]: 1.5 µM
TGI [5]: 4.5 µM
GI50 [7]: 3.57 µM
TGI [7]: 15.6 µM
GI50 [8]: 1.7 µM
TGI [8]: 3.19 µM
GI50 [9]: 1.69 µM
TGI [9]: 3.38 µM
GI50 [10]: 1.64 µM
TGI [10]: 3.38 µM

C#CCOc1cccc(Nc2ncnc3c(NC(=O)C=C)cccc23)c1
GI50 [1]: 4.37 µM
TGI [1]: > 100 µM
GI50 [2]: 12.3 µM
TGI [2]: 37.3 µM
GI50 [3]: 18.5 µM
TGI [3]: 52 µM
GI50 [4]: 30.3 µM
TGI [4]: > 100 µM
GI50 [5]: 13.6 µM
TGI [5]: 42.6 µM
GI50 [6]: 28.3 µM
TGI [6]: > 100 µM
GI50 [7]: 27.7 µM
TGI [7]: > 100 µM
GI50 [8]: 14 µM
TGI [8]: 36 µM
GI50 [9]: 13.3 µM
TGI [9]: 39.7 µM
GI50 [10]: 13.9 µM
TGI [10]: 89.9 µM

ClC(Cl)=C1C(=C(Cl)Cl)C(Cl)(Cl)C1(Cl)Cl
TGI [1]: 3.46 µM
TGI [2]: 5.36 µM
TGI [3]: 5.9 µM
TGI [4]: 10.4 µM
TGI [5]: 4.5 µM
TGI [6]: 16.6 µM
TGI [7]: 9.22 µM
TGI [8]: 6.08 µM
TGI [9]: 3.26 µM
TGI [10]: 13.4 µM

CC(C)CC(C/C=C1/CC(CO)(COC(=O)C(C)(C)C)OC1=O)CC(C)C (stereo not drawn)
TGI [1]: 26.4 µM
TGI [2]: 28.8 µM and 24.1 µM
TGI [4]: 24.2 µM and 14.7 µM
TGI [5]: 18.8 µM
GI50 [6]: 1.25 µM and 0.247 µM
TGI [6]: 10.7 µM and 7 µM
TGI [7]: 26.4 µM and 25.4 µM
TGI [8]: 21.3 µM
TGI [9]: 43.8 µM and 32.9 µM
TGI [10]: 24.6 µM and 31 µM
